Reference: patent US7820212B2, “Abietane diterpenoid compound, and composition comprising extract of Torreya nucifera, or abietane diterpenoid compounds or terpenoid compounds isolated from them for prevention and treatment of cardiovascular disease” (Korea Research Institute of Bioscience and Biotechnology, priority 2004, dated 2010)

Legend:
[1] = target: T1, hACAT-1 (Homo sapiens, UniProt P35610); test: ACAT activity, microsomal fraction of Hi5 cells over-expressing hACAT-1; format: biochemical
T1 construct: made in house; host or cells: Hi5 insect cells infected with recombinant baculovirus (virus produced in sf9 cells); microsomal fraction used
T1 sequence (P35610 1-550): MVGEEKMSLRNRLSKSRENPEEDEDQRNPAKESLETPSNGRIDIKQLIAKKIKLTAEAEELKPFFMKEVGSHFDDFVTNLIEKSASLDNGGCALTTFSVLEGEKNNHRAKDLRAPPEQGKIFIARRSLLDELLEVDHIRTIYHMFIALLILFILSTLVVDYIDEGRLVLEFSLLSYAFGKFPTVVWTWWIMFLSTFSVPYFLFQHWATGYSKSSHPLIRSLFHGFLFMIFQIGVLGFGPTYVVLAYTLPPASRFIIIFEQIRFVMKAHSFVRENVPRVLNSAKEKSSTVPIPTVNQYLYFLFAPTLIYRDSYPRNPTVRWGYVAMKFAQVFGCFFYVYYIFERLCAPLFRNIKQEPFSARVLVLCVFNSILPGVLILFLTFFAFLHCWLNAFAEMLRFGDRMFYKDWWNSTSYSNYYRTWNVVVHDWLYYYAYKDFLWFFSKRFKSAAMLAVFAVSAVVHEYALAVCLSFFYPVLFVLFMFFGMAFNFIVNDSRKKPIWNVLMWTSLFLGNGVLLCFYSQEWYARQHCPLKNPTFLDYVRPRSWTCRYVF
Protocol: (§1) In order to investigate the effect on hACAT-1 and hACAT-2 activities, hACAT-1 and hACAT-2 proteins were first obtained by taking advantage of baculovirus expression system.
(§2) cDNAs of hACAT-1 and hACAT-2 obtained from human liver cDNA library screening were inserted into baculovirus transfer vector, which was then introduced into insect sf9 cells to produce virus. Then, recombinant viruses of HACAT-1 and hACAT-2 were separated by plaque purification method, and amplification was performed three times to increase titer of viral stock. Hi5 insect cells having a good protein expression efficacy were infected with the recombinant virus, making multiplicity of infection as 1, followed by shaking culture at 27° C. for one day.
(§3) The cultured Hi5 cells over-expressing hACAT-1 and hACAT-2 were centrifuged at 500×g for 15 minutes to separate microsomal fraction. Then, cells were crushed in hypotonic buffer by quick freezing quick thawing, followed by ultracentrifugation at 100,000×g for one hour.
(§4) The obtained microsomal fractions were suspended in storage buffer solution, adjusting protein content to 8 mg/ml, which was stored in a deep freezer before using.
(§5) 6.67 μl of cholesterol dissolved in acetone at the concentration of 1 mg/ml was mixed with 6 μl of 10% triton WR 1339 (Sigma Co.) in acetone. And acetone was evaporated by nitrogen gas. Distilled water was added to the resultant mixture to adjust the content of cholesterol to […].
(§6) To 10 μl of cholesterol solution was added 10 μl of 1 M KH2PO4 (pH 7.4), 5 μl of 0.6 mM BSA (bovine serum albumin), 10 μl of the microsomal solution obtained above, 10 μl of sample (T. nucifera extracts or abietane diterpenoid compound isolated from the same) and 45 μl of distilled water (total 90 μl). The mixture was pre-incubated in a 37° C. water bath for 30 minutes.
(§7) 10 μl of [1-^14C]oleyl-CoA solution (0.05 μCi, final concentration 10 μM) was added to the pre-incubated mixture, which was reacted in a 37° C. water bath for 30 minutes. To the mixture was added 500 μl of isopropanol:heptane solution (4:1 (v/v)), 300 μl of heptane and 200 μl of 0.1 M KH2PO4 (pH 7.4), which was stirred vigorously with vortex and then allowed to phase separation under gravity at room temperature for 2 minutes.
(§8) The 200 μl of upper phase was put in a scintillation vial, to which 4 ml of scintillation solution (Lipoluma, Lumac Co.) was added. Radioactivity of the upper phase was measured by a scintillation counter (1450 Microbeta liquid scintillation counter, Wallacoy, Finland).
(§9) ACAT activity was calculated based on the radioactivity, the amount of synthesized cholesteryl oleate, measured above and expressed as a defined unit, pico mole per 1 mg of protein for 1 minute (pico mole/minute/mg protein).

[2] = target: T2, hACAT-2 (Homo sapiens, UniProt O75908); test: ACAT activity, microsomal fraction of Hi5 cells over-expressing hACAT-2; format: biochemical
T2 construct: made in house; host or cells: Hi5 insect cells infected with recombinant baculovirus (virus produced in sf9 cells); microsomal fraction used
T2 sequence (O75908 1-522): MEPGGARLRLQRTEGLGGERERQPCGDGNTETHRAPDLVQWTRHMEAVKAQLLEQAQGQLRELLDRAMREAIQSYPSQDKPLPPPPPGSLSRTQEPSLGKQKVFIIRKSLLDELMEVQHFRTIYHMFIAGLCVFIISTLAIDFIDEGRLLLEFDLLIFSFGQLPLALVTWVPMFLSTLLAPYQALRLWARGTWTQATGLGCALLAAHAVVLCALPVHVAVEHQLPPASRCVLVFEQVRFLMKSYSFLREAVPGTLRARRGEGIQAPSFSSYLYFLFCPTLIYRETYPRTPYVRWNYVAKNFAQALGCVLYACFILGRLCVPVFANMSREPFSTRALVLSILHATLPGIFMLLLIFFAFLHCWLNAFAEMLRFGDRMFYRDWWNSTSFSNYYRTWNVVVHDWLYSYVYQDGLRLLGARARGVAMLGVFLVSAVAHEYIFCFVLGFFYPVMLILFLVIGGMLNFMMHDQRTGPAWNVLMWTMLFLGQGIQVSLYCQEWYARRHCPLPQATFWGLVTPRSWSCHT
Protocol: as §1, §2, §3, §4, §5, §6, §7, §8, §9

[3] = test system: C57BL/6J mice; test: Cholesterol-lowering effect in mice on high-fat/high-cholesterol (HFHC) diet; format: in vivo; conditions: for HDL-cholesterol / HDL/total cholesterol / Total cholesterol: blood plasma, 1% extracts or 0.1% probucol (wt/wt diet)
Protocol: 30 specific pathogens free male C57BL/6J mice at the age of 6 weeks were raised in an animal facility, in which temperature was maintained as 22±3° C., humidity was kept as 55±10% and light was regulated as 12L/12D. The mice were adapted for about one week before being used for experiments. When they were at the age of 7 weeks (weight: 20˜22 g), they were divided into […] according to randomized block design. Group 1 mice were given with high-cholesterol/high-fat diet (CRF-1; AIN-76 test animal's normal diet supplemented with 1.25% cholesterol and 15% fat, Orient Yeast Co. Ltd., Japan), group 2 mice were given with high-fat/high-cholesterol (HFHC) diet together with 1% methanol extracts (wt/wt diet) of T. nucifera leaves (or 1% hot water extracts of T. nucifera leaves), and group 3 mice were treated with HFHC diet together with 0.1% probucol (wt/wt diet). All the mice of every group were free to take the diet and water for 10 days. Dietary intake was recorded everyday and weights of animals were measured every 5 days. Upon completion of breeding, all the records were analyzed. […] All the mice in three groups were sacrificed 10 days after the beginning of animal tests, then their blood was examined. Blood was taken from retro-orbital sinus of the sacrified mice by heparin treated capillary tube. Centrifugation was performed with blood at 8,000×g for 10 minutes. Blood plasma was separated from supernatant and then stored in a deep freezer. Total cholesterol content (TC) in blood plasma of each mouse of experimental group was measured by using a blood chemistry analyzer (CIBA Corning 550 Express, USA). In order to measure HDL-cholesterol, HDL measuring reagent (Chiron Diagnostics Co., USA), produced by the modified method for HDL measurement (references [(1) Stein E. A., et al.: Development and evaluation of a method for quantitation of plasma high-density-lipoprotein cholesterol. Clin. Chem. 24: 1112-1115, 1978; (2) Finley P. R., et al.: Cholesterol in high-density lipoprotein: use of Mg^2+/dextran sulfate in its enzymatic measurement. Clin. Chem., 24: 931-933, 1978; (3) Warnick G. R., et al.: Dextran sulfate-Mg^2+ precipitation procedure for quantitation of high-density lipoprotein cholesterol. Clin. Chem. 28: 1379-1388, 1982]) in which dextran sulfate and magnesium sulfate were added to serum of each mouse to precipitate LDL and VLDL and then HDL in supernatant was measured, was mixed with blood plasma of each experimental group at the ratio of 1:10. […] The resultant supernatant was put in a blood chemistry analyzer. A statistical computer program (Microsoft Excel, Version 7.0) was used to investigate and confirm (student t-test) the significance in difference in the results of blood analysis among experimental groups.

[4] = test system: LDL; test: Anti-oxidative activity to LDL by TBARS method (Cu2+ mediated LDL-oxidation); format: biochemical, human; conditions: 37° C. 4 hours, MDA by TBARS
Protocol: Cu^2+ is known to mediate LDL-oxidation. Thus, in the present invention, dialdehyde, which is an oxidation product of unsaturated fatty acid formed during Cu^2+ mediated LDL-oxidation, was measured by thiobarbituric acid reactive substances (TBARS) method in order to investigate the LDL anti-oxidative activity of T. nucifera extracts or abietane diterpenoid compound separated from the same (Ahn, B. T. et. al., Low-density Lipoprotein-Antioxidant Constituents of Saururus Chinensis, J. Nat. Prod. 64: 1562, 2001). Centrifugation was performed with 300 ml of human blood plasma by using a ultracentrifuge at 100,000×g for 24 hours to remove floating VLDL/chylomicron layer in the upper part. The specific gravity of the remaining solution was adjusted to 1.063 g/ml. Centrifugation was performed again at 100,000×g for 24 hours, and 25 ml of the floating LDL (1.5˜2.5 mg protein/ml) in the upper layer was separated. […] T. nucifera extracts or abietane diterpenoid compound isolated from the same was dissolved in DMSO (dimethylsulfoxide), and the solution was diluted at different concentrations before use. […] OD540 was measured with a UV/VIS spectrophotometer. Malondialdehyde (MDA) detected by the above coloring was quantified. […] MDA was quantified by using the standard curve in experiments with T. nucifera extracts or abietane diterpenoid compound isolated from the same.

Compound: CC(C)c1ccc2c(c1)CC[C@H]1[C@](C)(CO)CCC[C@]21C [Dehydroabietinol, dehydroabietinol]
- IC50 [1]: 41 µM
- IC50 [2]: 60 µM

Compound: C=C[C@@]1(C)CC[C@H]2C(=CC[C@@H]3[C@]2(C)CCC[C@@]3(C)C(=O)O)C1 [Isopimaric acid, isopimaric acid]
- IC50 [1]: 229 µM
- IC50 [2]: 263 µM

Compound: C=C1CCC2[C@](C)(CO)CCC[C@]2(C)[C@H]1CC/C(C)=C\CO (stereo partly drawn) [Kayadiol, kayadiol]
- IC50 [1]: 120 µM
- IC50 [2]: 155 µM

Compound: CC(C)(Sc1cc(C(C)(C)C)c(O)c(C(C)(C)C)c1)Sc1cc(C(C)(C)C)c(O)c(C(C)(C)C)c1 [Probucol]
- plasma HDL-cholesterol contents compared with negative control ([3]; HFHC diet 10 days): not much different
- HDL-cholesterol ([3]; Table 3, HFHC diet 10 days): 41.7 ± 6.4 mg/dL
- HDL/total cholesterol ([3]; Table 3, HFHC diet 10 days): 24.3%
- Total cholesterol ([3]; Table 3, HFHC diet 10 days): 177.0 ± 33.7 mg/dL
- total cholesterol in plasma reduced, comparing to a control ([3]; Table 3 experiment, vs HFHC diet group): 14.5%
- HDL-cholesterol ([3]; Table 4, HFHC diet 10 days): 44.3 ± 6.5 mg/dL
- HDL/total cholesterol ([3]; Table 4, HFHC diet 10 days): 24.5%
- Total cholesterol ([3]; Table 4, HFHC diet 10 days): 180.9 ± 32.6 mg/dL
- plasma cholesterol reduced, comparing to a control ([3]; Table 4 experiment, vs HFHC diet group): 11.5%
- IC50 [4]: 1.55 µM

Compound: CC(C)c1cc2c(cc1O)[C@@]1(C)CCC[C@@](C)(C=O)C1CC2 (stereo partly drawn) [R = aldehyde, 18-oxoferruginol]
- IC50 [1]: 37 µM
- IC50 [2]: 42 µM

Compound: COC(OC)[C@]1(C)CCC[C@]2(C)c3cc(O)c(C(C)C)cc3CCC12 (stereo partly drawn) [R = dimethoxymethyl, 12-hydroxyabietic-8,11,13-trien-18-dimethylacetal]
- IC50 [1]: 98 µM
- IC50 [2]: 199 µM

Compound: CC(C)c1cc2c(cc1O)[C@@]1(C)CCC[C@@](C)(CO)C1CC2 (stereo partly drawn) [R = hydroxymethyl, 18-hydroxyferruginol]
- IC50 [1]: 74 µM
- IC50 [2]: 65 µM

Compound: CC(C)c1cc2c(cc1O)[C@@]1(C)CCCC(C)(C)[C@@H]1CC2 [R = methyl, ferruginol]
- IC50 [1]: 46 µM
- IC50 [2]: 88 µM

Compound: COC(=O)[C@]1(C)CCC[C@]2(C)c3cc(O)c(C(C)C)cc3CCC12 (stereo partly drawn) [R = methylester, 12-hydroxyabietic-8,11,13-trien-18-oic acid methylester]
- IC50 [1]: 129 µM
- IC50 [2]: 309 µM

Compound: δ-cadinol
- IC50 [1]: 79 µM
